According to PMC10535292, “Quinoline- and Isoindoline-Integrated Polycyclic Compounds as Antioxidant, and Antidiabetic Agents Targeting the Dual Inhibition of α-Glycosidase and α-Amylase Enzymes” (Pharmaceuticals, 2023):
Read-outs that look alike come from different tables or passages of the source.

Legend:
[1] = biological target: T1, yeast α-glycosidase (Saccharomyces cerevisiae, UniProt P38158); assay: biochemical
Source text: (§1) Inhibitory activity of α-amylase and α-glycosidase was expressed as percent inhibition, calculated using the following formula. Inhibition (%) = (A control − A sample)/A control × 100
(§2) The IC50 values were obtained from a graph that correlated the percentage of the inhibition of each sample with its concentration. Each experiment included three replicates, along with appropriate blanks.

[2] = ABTS cation radical scavenging assay; settings: mean ± SE, triplicate; read-out: EC50 Radical Scavenging Activities ABTS
Experimental: (§3) The ability of the samples to scavenge free radicals was evaluated using a range of in vitro tests, including DPPH, ABTS, and superoxide anion radicals, with BHA utilized as a positive control.
(§4) The DPPH free radical, ABTS cation radical, and superoxide anion radical scavenging approaches were used in the antioxidant activity of the present study. The capacity for the radical scavenging was represented by EC50 values. […] Every sample was observed three times. Butylated hydroxyanisole (BHA) is the positive control drug in this evaluation of antioxidant activity.

[3] = biological target: T2, type-VI B porcine pancreatic α-amylase (Sus scrofa, UniProt P00690); assay: α-Amylase inhibition with soluble starch (1%); format: biochemical; settings: mean ± SE, triplicate
T2 construct: type-VI B porcine pancreatic α-amylase; from tissue; host or cells: porcine pancreas (preparation grade 'type-VI B')
T2 sequence (P00690 16-511): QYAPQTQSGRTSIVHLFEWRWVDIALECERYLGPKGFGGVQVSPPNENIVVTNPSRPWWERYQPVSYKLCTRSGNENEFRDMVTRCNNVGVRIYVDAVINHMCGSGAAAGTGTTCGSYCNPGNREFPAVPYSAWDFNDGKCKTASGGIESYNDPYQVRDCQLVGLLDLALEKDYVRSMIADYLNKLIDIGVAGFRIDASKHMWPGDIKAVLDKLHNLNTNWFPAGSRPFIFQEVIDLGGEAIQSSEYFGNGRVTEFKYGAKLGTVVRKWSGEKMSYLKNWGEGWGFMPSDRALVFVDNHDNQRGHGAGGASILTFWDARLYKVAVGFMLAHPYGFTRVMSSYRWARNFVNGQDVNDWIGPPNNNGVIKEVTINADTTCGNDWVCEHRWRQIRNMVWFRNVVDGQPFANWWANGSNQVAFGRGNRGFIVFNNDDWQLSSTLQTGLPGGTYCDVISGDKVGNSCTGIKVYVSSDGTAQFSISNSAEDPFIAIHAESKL
Experimental: Moreover, similar tests were carried out to reveal if the synthesized molecules inhibited α-amylase, another important carbohydrate-hydrolyzing enzyme.
as §1, §2

[4] = Superoxide anion radical scavenging assay; settings: mean ± SE, triplicate; read-out: EC50 Radical Scavenging Activities Superoxide Anion Radicals
Experimental: as §3, §4

[5] = DPPH free radical scavenging assay; settings: mean ± SE, triplicate; read-out: EC50 Radical Scavenging Activities DPPH
Experimental: as §3, §4

[6] = biological target: T3, α-amylase (Sus scrofa, UniProt P00690); assay: Kinetic analysis of α-amylase inhibition (Lineweaver–Burk, Dixon plots); format: biochemical, porcine
T3 construct: type-VI B porcine pancreatic α-amylase; from tissue; host or cells: porcine pancreas (preparation grade 'type-VI B')
T3 sequence (P00690 16-511): T2 sequence (P00690 16-511)
Experimental: (§5) For the kinetic studies, α-glycosidase and α-amylase were incubated with designated concentrations of the substrate pNPG and starch, respectively, in the absence (control) or presence of IC20-, IC40-, and IC60-inhibitory concentrations of 7d. The mode of inhibition, [Km], and [Vmax] values were determined by graphical means using Lineweaver–Burk plots. […] The kinetic results established that the maximum velocity (Vmax) of the 7d reaction (with increasing concentrations) remained constant and was catalyzed by α-glycosidase and α-amylase (Table 3).
(§6) The enzyme kinetics of the compounds’ inhibition of the glycosidase activity were examined using different concentrations of the substrate against the IC20, IC40, and IC60 inhibitory concentrations of the compounds, as previously reported. The type of inhibition, Km, and Vmax were calculated using a double-reciprocal plot of the substrate concentration and velocity (1/V against 1/[pNPG]). The inhibitory constant (Ki) was also determined using the Dixon plot.

[7] = biological target: T1, yeast α-glycosidase; assay: Kinetic analysis of α-glycosidase inhibition (Lineweaver–Burk, Dixon plots); format: biochemical
Experimental: as §5, §6

T1 sequence (P38158 whole entry): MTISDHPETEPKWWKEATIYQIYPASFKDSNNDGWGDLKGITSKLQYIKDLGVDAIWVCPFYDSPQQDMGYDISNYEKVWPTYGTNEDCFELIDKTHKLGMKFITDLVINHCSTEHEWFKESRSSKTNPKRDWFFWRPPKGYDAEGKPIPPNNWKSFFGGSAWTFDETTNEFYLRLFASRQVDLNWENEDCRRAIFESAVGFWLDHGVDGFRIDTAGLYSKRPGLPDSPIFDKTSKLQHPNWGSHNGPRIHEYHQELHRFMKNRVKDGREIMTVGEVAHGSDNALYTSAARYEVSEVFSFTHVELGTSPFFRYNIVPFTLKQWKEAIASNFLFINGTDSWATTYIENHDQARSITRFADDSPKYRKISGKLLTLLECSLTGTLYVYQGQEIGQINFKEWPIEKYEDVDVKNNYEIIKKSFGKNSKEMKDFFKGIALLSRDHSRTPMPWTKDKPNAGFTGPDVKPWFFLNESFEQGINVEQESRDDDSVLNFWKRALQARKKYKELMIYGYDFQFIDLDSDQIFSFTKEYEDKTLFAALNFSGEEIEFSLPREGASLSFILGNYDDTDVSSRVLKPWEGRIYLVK

SMILES	melting point	IC50 [1]	EC50 [2]	IC50 [3]	EC50 [4]	EC50 [5]	further results
N#Cc1c(-c2ccc([N+](=O)[O-])cc2)nn(C(=O)COc2cccc3cccnc23)c1N [4a, 5-Amino-3-(4-nitrophenyl)-1-(2-(quinolin-8-yloxy)acetyl)-1H-pyrazole-4-carbonitrile]	157 to 159 °C	0.24 ± 0.05 mM	1.3 ± 1 mM	0.72 ± 0.51 mM	1.11 ± 0.27 mM	1.5 ± 0.77 mM	–
N#Cc1c(-c2ccccc2O)nn(C(=O)COc2cccc3cccnc23)c1N [4c, 5-Amino-3-(2-hydroxyphenyl)-1-(2-(quinolin-8-yloxy)acetyl)-1H-pyrazole-4-carbonitrile]	157 to 159 °C	1.11 ± 0.74 mM	7.86 ± 0.55 mM	1.6 ± 0.77 mM	5.95 ± 1.05 mM	4.55 ± 1.57 mM	–
N#Cc1c(-c2ccc([N+](=O)[O-])cc2)cc(N2C(=O)c3ccccc3C2=O)nc1N [7b, 2-Amino-6-(1,3-dioxoisoindolin-2-yl)-4-(4-nitrophenyl)nicotinonitrile]	153 to 155 °C	1.05 ± 0.88 mM	2.6 ± 0.77 mM	1.5 ± 1.5 mM	2.3 ± 1.99 mM	2 ± 0.15 mM	–
N#Cc1c(-c2ccc([N+](=O)[O-])cc2)cc(N2C(=O)c3ccccc3C2=O)[nH]c1=O [8b, 6-(1,3-Dioxoisoindolin-2-yl)-4-(4-nitrophenyl)-2-oxo-1,2-dihydropyridine-3-carbonitrile]	221 to 223 °C	1.01 ± 0.04 mM	9.88 ± 2.25 mM	1.6 ± 0.83 mM	6 ± 2.45 mM	4.5 ± 0.79 mM	–
N#Cc1c(-c2ccccc2O)cc(N2C(=O)c3ccccc3C2=O)[nH]c1=O [8c, 6-(1,3-Dioxoisoindolin-2-yl)-4-(2-hydroxyphenyl)-2-oxo-1,2-dihydropyridine-3-carbonitrile]	205 to 207 °C	1.8 ± 0.72 mM	2.44 ± 0.67 mM	3.55 ± 1.55 mM	5.15 ± 0.77 mM	2.5 ± 1.11 mM	–
N#Cc1c(-c2ccc(Cl)c(Cl)c2O)cc(N2C(=O)c3ccccc3C2=O)[nH]c1=O [8d, 4-(3,4-Dichloro-2-hydroxyphenyl)-6-(1,3-dioxoisoindolin-2-yl)-2-oxo-1,2-dihydropyridine-3-carbonitrile]	233 to 235 °C	2.22 ± 0.11 mM	9.99 ± 1.89 mM	5 ± 3 mM	5.22 ± 0.85 mM	5.05 ± 2.22 mM	–
COc1ccc(O)c(C(C)(C)C)c1 [BHA, Butylated hydroxyanisole, reference compound]	–	–	0.64 ± 0.31 mM	–	0.95 ± 0.17 mM	0.8 ± 0.32 mM	–
NNC(=O)COc1cccc2cccnc12 [compound 1, 2-(Quinolin-8-yloxy)acetohydrazide]	137 to 139 °C	–	4.5 ± 1.14 mM	0.9 ± 1.04 mM	4.5 ± 1.11 mM	4.65 ± 2.25 mM	IC50 ([1]; mean ± SE, triplicate, read-out: IC50 α-Glycosidase): 0.5 ± 0.66 mM
CC(=NNC(=O)COc1cccc2cccnc12)c1ccc(N2C(=O)c3ccccc3C2=O)cc1 [compound 3, N’-(1-(4-(1,3-Dioxoisoindolin-2-yl)phenyl)ethylidene)-2-(quinolin-8-yloxy)acetohydrazide]	211 to 213 °C	0.47 ± 0.35 mM	1.35 ± 1.1 mM	0.91 ± 1.55 mM	1.1 ± 0.55 mM	1.6 ± 1.02 mM	–
N#Cc1c(-c2ccc(Cl)cc2)nn(C(=O)COc2cccc3cccnc23)c1N [compound 4b, 5-Amino-3-(4-chlorophenyl)-1-(2-(quinolin-8-yloxy)acetyl)-1H-pyrazole-4-carbonitrile]	163 to 165 °C	0.99 ± 0.33 mM	4.75 ± 0.42 mM	1.55 ± 1.67 mM	4.5 ± 2 mM	5 ± 0.25 mM	–
S=C1N=NC(COc2cccc3cccnc23)=N1 [compound 6, 5-((Quinolin-8-yloxy)methyl)-3H-1,2,4-triazole-3-thione]	187 to 189 °C	1.5 ± 2 mM	8.01 ± 0.33 mM	3.65 ± 2.47 mM	6.1 ± 1.54 mM	3.33 ± 0.86 mM	–
N#Cc1c(-c2ccccc2)cc(N2C(=O)c3ccccc3C2=O)nc1N [compound 7a, 2-Amino-6-(1,3-dioxoisoindolin-2-yl)-4-phenylnicotinonitrile]	167 to 169 °C	1.78 ± 0.06 mM	2.25 ± 0.22 mM	3.5 ± 1 mM	2.25 ± 0.66 mM	1.99 ± 0.09 mM	–
N#Cc1c(-c2ccccc2O)cc(N2C(=O)c3ccccc3C2=O)nc1N [compound 7c, 2-Amino-6-(1,3-dioxoisoindolin-2-yl)-4-(2-hydroxyphenyl)nicotinonitrile]	160 to 162 °C	0.11 ± 0.04 mM	1.23 ± 0.48 mM	0.26 ± 0.32 mM	1 mM	1 ± 0.85 mM	–
N#Cc1c(-c2ccc(Cl)c(Cl)c2O)cc(N2C(=O)c3ccccc3C2=O)nc1N [compound 7d, 2-Amino-4-(3,4-dichloro-2-hydroxyphenyl)-6-(1,3-dioxoisoindolin-2-yl)nicotinonitrile]	–	0.07 ± 0.1 mM	0.52 ± 0.25 mM	0.21 ± 0.06 mM	0.93 ± 0.12 mM	0.65 ± 0.03 mM	Ki (dissociation constant) ([6]; Dixon plot, mean ± SE): 0.75 mg; Mode of Inhibition ([6]; Lineweaver–Burk plot): competitive inhibition; IC20 ([6]; inhibitory concentration used in kinetics): 0.08 mM; 1/Vmax (reciprocal maximum velocity) ([6]; treatment IC20 0.08 μg): 13.01 10^3 (µM/min)^−1; 1/Vmax (reciprocal maximum velocity) ([6]; treatment IC40 0.16 μg): 13.90 10^3 (µM/min)^−1; 1/Vmax (reciprocal maximum velocity) ([6]; treatment IC60 0.25 μg): 13.15 10^3 (µM/min)^−1; IC20 [7]: 0.03 mM; Ki (dissociation constant) ([7]; α-glycosidase, Dixon plot, mean ± SE): 0.47 mg; Mode of Inhibition ([7]; α-glycosidase, Lineweaver–Burk plot): competitive inhibition; 1/Vmax (reciprocal maximum velocity) ([7]; α-glycosidase, treatment IC20 0.03 μg): 28.82 10^3 (µM/min)^−1; 1/Vmax (reciprocal maximum velocity) ([7]; α-glycosidase, treatment IC40 0.06 μg): 29.00 10^3 (µM/min)^−1; 1/Vmax (reciprocal maximum velocity) ([7]; α-glycosidase, treatment IC60 0.08 μg): 29.29 10^3 (µM/min)^−1
N#Cc1c(-c2ccccc2)cc(N2C(=O)c3ccccc3C2=O)[nH]c1=O [compound 8a, 6-(1,3-Dioxoisoindolin-2-yl)-2-oxo-4-phenyl-1,2-dihydropyridine-3-carbonitrile]	216 to 218 °C	1 mM	10 ± 1.17 mM	0.88 ± 0.36 mM	5.78 ± 3.01 mM	3.25 ± 1.23 mM	–
